# Test results reported in US11566030B2, “Substituted 2,6-dihydropyrrolo[3,4-c]pyrazoles as pyruvate kinase activators” (priority 2021, dated 2023).
# Where two headings read alike, the source gives them in different places.
# Target: T1, Human pyruvate kinase R (PKR) (Homo sapiens, UniProt P30613)
# T1 construct: Human pyruvate kinase R (PKR), residues 14-574; 6xHis-8xArg-SUMO (N, cleaved yes); host or cells: E. coli
# Assay: Biochemical assay for activation of pyruvate kinase R (Kinase-Glo luminescence, ATP generation)
# Details: for Emax: read-out: PKR % activation, maximal activation level achieved with each compound relative to the activation level achieved by AG-348 @ 10 μM
# Procedure: Human pyruvate kinase R (PKR), residues 14-574, and human pyruvate kinase M2, residues 1-531, were cloned into expression plasmids and obtained from ATUM Bio (Newark, Calif.). Proteins were translated as fusions with 6×-His,8×-Arg, and SUMO at the N-terminus. A third construct of human PKR was truncated, residues 50-574, and similarly cloned for use in crystallography experiments. All proteins were cloned, expressed in E. coli, and purified using similar protocols. Cells were grown at 30° C. in Luria-Bertani broth supplemented with 0.4% glucose to OD600=0.8 and induced with 0.4 mM IPTG at 16° C. for 18 hours. Cells were harvested by centrifugation, resuspended in 50 mM potassium phosphate pH 8.0, 500 mM NaCl, 25 mM imidazole pH 8.0, and 3 mM β-mercaptoethanol. Cells were lysed using a LM20 microfluidizer from Microfluidics (Westwood, Mass.). The crude lysate was immediately supplemented with 0.2 mM phenylmethylsulfonyl fluoride (PMSF) and centrifuged at 20,000 g for 20 minutes. The soluble fraction was subsequently incubated with 2 mL Ni-NTA (GE Healthcare) per 1,000 ODs for 1 hour at 4° C. Following incubation with the Ni-NTA resin, lysate was removed by pelleting resin at 2,500 g for 3 minutes and washed 3 times with 9 bed volumes of 50 mM potassium phosphate pH 8.0, 500 mM NaCl, 25 mM imidazole, and 3 mM β-mercaptoethanol. Following the batch wash Ni-NTA resin was loaded onto a gravity column and His-tagged protein was eluted with 6 bed volumes of 10 mM Tris/HCl pH 8.0, 200 mM NaCl, 500 mM imidazole, and 3 mM β-mercaptoethanol. Eluted protein was dialyzed overnight against 10 mM Tris/HCl pH 8.0, 200 mM NaCl, and 1 mM DTT and the 6×-His-8×-Arg-SUMO-tag was cleaved using a 20:1 molar ratio of protein: 3C protease. The protein was purified by anion exchange chromatography on a HiTrapQ or MonoQ 10/100 GL column (GE Healthcare) via a linear NaCl gradient and twice by size exclusion chromatography using a Superdex S200 26/60 column (GE Healthcare) run in 10 mM Tris/HCl pH 8.0, 200 mM NaCl, 10 mM MgCl2, 1 mM DTT. Proteins were concentrated to −12 mg/mL for crystallization and flash frozen for storage.
# Biochemical assay for Activation of Pyruvate Kinase R
# Activation of pyruvate kinase R (PKR) and pyruvate kinase M2 (PKM2) were measured using a luminescence based measurement of ATP generation and the Kinase-Glo luminescent kinase reagent kit.
# [1] = PKR AC50 (nM), 0.1 nM PKR, 0.3 mM ADP, 0.1 mM PEP, 1% DMSO
# T1 sequence (P30613 14-574): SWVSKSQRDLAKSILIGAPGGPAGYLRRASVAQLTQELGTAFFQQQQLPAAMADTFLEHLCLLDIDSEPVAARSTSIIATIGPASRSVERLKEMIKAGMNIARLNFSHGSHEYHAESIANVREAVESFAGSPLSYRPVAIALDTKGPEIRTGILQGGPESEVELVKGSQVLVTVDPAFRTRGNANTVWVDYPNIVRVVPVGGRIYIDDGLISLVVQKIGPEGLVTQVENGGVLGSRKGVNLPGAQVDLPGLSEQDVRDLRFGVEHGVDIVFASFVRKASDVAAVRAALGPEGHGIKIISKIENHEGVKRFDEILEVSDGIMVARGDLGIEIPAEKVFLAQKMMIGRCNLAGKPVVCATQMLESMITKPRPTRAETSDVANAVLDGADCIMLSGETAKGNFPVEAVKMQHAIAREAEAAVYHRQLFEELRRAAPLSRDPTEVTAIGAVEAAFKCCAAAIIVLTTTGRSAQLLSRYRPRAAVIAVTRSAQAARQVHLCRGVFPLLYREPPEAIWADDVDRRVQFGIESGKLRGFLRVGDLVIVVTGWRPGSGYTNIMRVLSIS
SMILES,AC50,Emax,AC50 [1]
"O=C([C@H](O)c1ccccc1F)N1Cc2cn(S(=O)(=O)c3ccn(CC(F)F)n3)nc2C1 [Compound 51, (2R)-1-{2-[1-(2,2-difluoroethyl)pyrazol-3-ylsulfonyl]-4H,6H-pyrrolo[3,4-c]pyrazol-5-yl}-2-(2-fluorophenyl)-2-hydroxyethanone]",140 nM,112%,–
"O=C(N1Cc2cn(S(=O)(=O)c3cnn(CC(F)(F)F)c3)nc2C1)C1(c2ncccc2Cl)COC1 [Compound 52, (3-(3-chloropyridin-2-yl)oxetan-3-yl)(2-((1-(2,2,2-trifluoroethyl)-1H-pyrazol-4-yl)sulfonyl)-2,6-dihydropyrrolo[3,4-c]pyrazol-5(4H)-yl)methanone]",–,93%,24 nM
"O=C([C@H](CO)c1cccc(F)c1F)N1Cc2cn(S(=O)(=O)c3cnn(CC(F)F)c3)nc2C1 [Compound 53, (2S)-1-{2-[1-(2,2-difluoroethyl)pyrazol-4-ylsulfonyl]-4H,6H-pyrrolo[3,4-c]pyrazol-5-yl}-2-(2,3-difluorophenyl)-3-hydroxypropan-1-one]",–,100%,5.2 nM
"O=C([C@@H](CO)c1cccc(F)c1F)N1Cc2cn(S(=O)(=O)c3cnn(CC(F)F)c3)nc2C1 [Compound 54, (2R)-1-{2-[1-(2,2-difluoroethyl)pyrazol-4-ylsulfonyl]-4H,6H-pyrrolo[3,4-c]pyrazol-5-yl}-2-(2,3-difluorophenyl)-3-hydroxypropan-1-one]",–,108%,260 nM
"O=C([C@H](CO)c1cccc(F)c1Cl)N1Cc2cn(S(=O)(=O)c3cnn(CC(F)F)c3)nc2C1 [Compound 55, (2S)-2-(2-chloro-3-fluorophenyl)-1-{2-[1-(2,2-difluoroethyl)pyrazol-4-ylsulfonyl]-4H,6H-pyrrolo[3,4-c]pyrazol-5-yl}-3-hydroxypropan-1-one]",5.1 nM,98%,–
"O=C([C@@H](CO)c1cccc(F)c1Cl)N1Cc2cn(S(=O)(=O)c3cnn(CC(F)F)c3)nc2C1 [Compound 56, (2R)-2-(2-chloro-3-fluorophenyl)-1-{2-[1-(2,2-difluoroethyl)pyrazol-4-ylsulfonyl]-4H,6H-pyrrolo[3,4-c]pyrazol-5-yl}-3-hydroxypropan-1-one]",170 nM,122%,–
"CC(C)n1cc(S(=O)(=O)n2cc3c(n2)CN(C(=O)[C@H](CO)c2ccccc2F)C3)cn1 [Compound 57, (2S)-2-(2-fluorophenyl)-3-hydroxy-1-[2-(1-isopropylpyrazol-4-ylsulfonyl)-4H,6H-pyrrolo[3,4-c]pyrazol-5-yl]propan-1-one]",–,50%,6.7 nM
"O=C([C@H](CO)c1ccccc1F)N1Cc2cn(S(=O)(=O)c3cnn(CCC(F)(F)F)c3)nc2C1 [Compound 58, (S)-2-(2-fluorophenyl)-3-hydroxy-1-(2-((1-(3,3,3-trifluoropropyl)-1H-pyrazol-4-yl)sulfonyl)-2,6-dihydropyrrolo[3,4-c]pyrazol-5(4H)-yl)propan-1-one]",30 nM,59%,–
"O=C([C@@H](CO)c1ccccc1F)N1Cc2cn(S(=O)(=O)c3cnn(CCC(F)(F)F)c3)nc2C1 [Compound 59, (R)-2-(2-fluorophenyl)-3-hydroxy-1-(2-((1-(3,3,3-trifluoropropyl)-1H-pyrazol-4-yl)sulfonyl)-2,6-dihydropyrrolo[3,4-c]pyrazol-5(4H)-yl)propan-1-one]",1600 nM,55%,–
"COCCn1cc(S(=O)(=O)n2cc3c(n2)CN(C(=O)[C@H](CO)c2ccccc2F)C3)cn1 [Compound 60, (2S)-2-(2-fluorophenyl)-3-hydroxy-1-{2-[1-(2-methoxyethyl)pyrazol-4-ylsulfonyl]-4H,6H-pyrrolo[3,4-c]pyrazol-5-yl}propan-1-one]",–,74%,28 nM
"COCCn1cc(S(=O)(=O)n2cc3c(n2)CN(C(=O)[C@@H](CO)c2ccccc2F)C3)cn1 [Compound 61, (2R)-2-(2-fluorophenyl)-3-hydroxy-1-{2-[1-(2-methoxyethyl)pyrazol-4-ylsulfonyl]-4H,6H-pyrrolo[3,4-c]pyrazol-5-yl}propan-1-one]",–,49%,3000 nM
"O=C([C@H](CO)c1ccccc1F)N1Cc2cn(S(=O)(=O)c3ccn(CC(F)(F)F)n3)nc2C1 [Compound 62, (2S)-2-(2-fluorophenyl)-3-hydroxy-1-{2-[1-(2,2,2-trifluoroethyl)pyrazol-3-ylsulfonyl]-4H,6H-pyrrolo[3,4-c]pyrazol-5-yl}propan-1-one]",–,60%,70 nM
"O=C([C@H](CO)c1ccccc1Cl)N1Cc2cn(S(=O)(=O)c3ccn(CC(F)(F)F)n3)nc2C1 [Compound 63, (2S)-2-(2-chlorophenyl)-3-hydroxy-1-[2-[1-(2,2,2-trifluoroethyl)pyrazol-3-ylsulfonyl]-4H,6H-pyrrolo[3,4-c]pyrazol-5-yl]propan-1-one]",–,85%,50 nM
"O=C(N1Cc2cn(S(=O)(=O)c3ccn(CC(F)F)n3)nc2C1)C1(c2ncccc2Cl)COC1 [Compound 64, 3-chloro-2-(3-{2-[1-(2,2-difluoroethyl)pyrazol-3-ylsulfonyl]-4H,6H-pyrrolo[3,4-c]pyrazole-5-carbonyl}oxetan-3-yl)pyridine]",–,100%,12 nM
"O=C(N1Cc2cn(S(=O)(=O)c3ccn(CC(F)(F)F)n3)nc2C1)C1(c2ncccc2Cl)COC1 [Compound 65, (3-(3-chloropyridin-2-yl)oxetan-3-yl)(2-((1-(2,2,2-trifluoroethyl)-1H-pyrazol-3-yl)sulfonyl)-2,6-dihydropyrrolo[3,4-c]pyrazol-5(4H)-yl)methanone]",–,42%,110 nM
"Cc1cn(CC(F)(F)F)nc1S(=O)(=O)n1cc2c(n1)CN(C(=O)[C@H](CO)c1ccccc1)C2 [Compound 66, (2S)-3-hydroxy-1-{2-[4-methyl-1-(2,2,2-trifluoroethyl)pyrazol-3-ylsulfonyl]-4H,6H-pyrrolo[3,4-c]pyrazol-5-yl}-2-phenylpropan-1-one]",–,0%,120 nM
"Cc1cn(CC(F)(F)F)nc1S(=O)(=O)n1cc2c(n1)CN(C(=O)[C@@H](CO)c1ccccc1)C2 [Compound 67, (2R)-3-hydroxy-1-{2-[4-methyl-1-(2,2,2-trifluoroethyl)pyrazol-3-ylsulfonyl]-4H,6H-pyrrolo[3,4-c]pyrazol-5-yl}-2-phenylpropan-1-one]",–,0%,–
"Cc1cn(CC(F)(F)F)nc1S(=O)(=O)n1cc2c(n1)CN(C(=O)[C@H](CO)c1ccccc1F)C2 [Compound 68, (2S)-2-(2-fluorophenyl)-3-hydroxy-1-{2-[4-methyl-1-(2,2,2-trifluoroethyl)pyrazol-3-ylsulfonyl]-4H,6H-pyrrolo[3,4-c]pyrazol-5-yl}propan-1-one]",–,9%,2100 nM
"Cc1cn(CC(F)(F)F)nc1S(=O)(=O)n1cc2c(n1)CN(C(=O)[C@@H](CO)c1ccccc1F)C2 [Compound 69, (2R)-2-(2-fluorophenyl)-3-hydroxy-1-{2-[4-methyl-1-(2,2,2-trifluoroethyl)pyrazol-3-ylsulfonyl]-4H,6H-pyrrolo[3,4-c]pyrazol-5-yl}propan-1-one]",–,4%,15 nM
"Cc1cn(CC(F)(F)F)nc1S(=O)(=O)n1cc2c(n1)CN(C(=O)[C@H](CO)c1ccccc1Cl)C2 [Compound 70, (2S)-2-(2-chlorophenyl)-3-hydroxy-1-{2-[4-methyl-1-(2,2,2-trifluoroethyl)pyrazol-3-ylsulfonyl]-4H,6H-pyrrolo[3,4-c]pyrazol-5-yl}propan-1-one]",–,36%,82 nM
"Cc1cn(CC(F)(F)F)nc1S(=O)(=O)n1cc2c(n1)CN(C(=O)[C@@H](CO)c1ccccc1Cl)C2 [Compound 71, (2R)-2-(2-chlorophenyl)-3-hydroxy-1-{2-[4-methyl-1-(2,2,2-trifluoroethyl)pyrazol-3-ylsulfonyl]-4H,6H-pyrrolo[3,4-c]pyrazol-5-yl}propan-1-one]",–,30%,3900 nM
"O=C([C@H](CO)c1ccccc1)N1Cc2cn(S(=O)(=O)c3ccn(CC(F)F)n3)nc2C1 [Compound 72, (2S)-1-{2-[1-(2,2-difluoroethyl)pyrazol-3-ylsulfonyl]-4H,6H-pyrrolo[3,4-c]pyrazol-5-yl}-3-hydroxy-2-phenylpropan-1-one]",9.6 nM,98%,–
